The values that follow are results of earlier work, collected in patent US8993486B2, “Ultra-high throughput screening methods to detect synergistic drug interactions” (Lankenau Institute for Medical Research Chemical Genomics …, priority 2010, dated 2015).

This series deals with diverse fungal pathogens.

As to `CC(=O)N1CCN(c2ccc(OCC3COC(Cn4ccnc4)(c4ccc(Cl)cc4Cl)O3)cc2)CC1` (centres unmarked) [ketoconazole], the fungicidal activity alone result (low dosage) is on record as “little detectable fungicidal activity”.

beauvericin: for the setting “checkerboard assay, diverse fungal pathogens”, the “synergy with ketoconazole (KTC) activity” value is listed as “dramatically synergized KTC activity”.
